Results on two compounds are retold here after publication PMC9278983, “Biochemical and Structural Characterization of Thermostable GH159 Glycoside Hydrolases Exhibiting α-L-Arabinofuranosidase Activity” (Frontiers in Molecular Biosciences, 2022).

Where only a bound is given, the exact number is not on record here.

Type in all cases: biochemical
For experiment [1], the target named is T1, Ch_Gaf159A (Caldicellulosiruptor hydrothermalis, UniProt E4QB49).
T1 construct: gene Calhy_0274; full-length (no signal peptide), C-terminal His6 tag, pET24c(+), E. coli BL21 Star, IMAC; monomer
T1 sequence (E4QB49 entry or part of it): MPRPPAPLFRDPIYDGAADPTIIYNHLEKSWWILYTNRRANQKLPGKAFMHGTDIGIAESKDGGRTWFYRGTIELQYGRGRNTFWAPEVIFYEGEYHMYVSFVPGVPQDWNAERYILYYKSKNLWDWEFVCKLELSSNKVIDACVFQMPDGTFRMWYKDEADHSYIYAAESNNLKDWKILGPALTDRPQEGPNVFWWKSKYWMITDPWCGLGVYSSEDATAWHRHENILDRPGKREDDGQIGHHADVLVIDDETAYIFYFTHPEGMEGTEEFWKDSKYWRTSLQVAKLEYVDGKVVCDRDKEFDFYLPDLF
In words: pNP release, […] nm, Michaelis-Menten. The conditions noted are these: 82 °C, pH 6.5 MOPS, 10 mM CaCl2, 10 min; saturation not reached.

Experiment [2] deals with T2, Cs_Gaf159A (Caldicellulosiruptor saccharolyticus, UniProt A4XGP0).
T2 construct: gene Csac_0437; full-length (no signal peptide), C-terminal His6 tag, pET24c(+), E. coli BL21 Star, IMAC
T2 sequence (A4XGP0 entry or part of it): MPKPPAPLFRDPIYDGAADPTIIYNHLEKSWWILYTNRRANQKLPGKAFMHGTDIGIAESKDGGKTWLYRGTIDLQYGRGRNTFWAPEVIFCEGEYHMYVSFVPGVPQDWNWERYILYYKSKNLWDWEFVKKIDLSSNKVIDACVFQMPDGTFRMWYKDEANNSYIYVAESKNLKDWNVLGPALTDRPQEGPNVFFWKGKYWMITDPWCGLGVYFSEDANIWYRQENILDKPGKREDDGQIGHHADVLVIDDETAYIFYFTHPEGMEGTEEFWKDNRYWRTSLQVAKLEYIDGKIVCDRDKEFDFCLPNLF
In words: pNP release, […] nm, Michaelis-Menten. The conditions noted are these: 90 °C, pH 6.5 MOPS, 10 mM CaCl2, 10 min; saturation not reached.

Experiment [3] concerns the target T1, Ch_Gaf159A. In words: product inhibition, pNPA hydrolysis. The note with it: read-out: % inhibition at 500 mM.
The target of another experiment is T3, Ck_Gaf159A (Caldicellulosiruptor kronotskyensis, UniProt E4SDK8).
T3 construct: gene Calkro_0290; full-length (no signal peptide), C-terminal His6 tag, pET24c(+), E. coli BL21 Star, IMAC
T3 sequence (E4SDK8 entry or part of it): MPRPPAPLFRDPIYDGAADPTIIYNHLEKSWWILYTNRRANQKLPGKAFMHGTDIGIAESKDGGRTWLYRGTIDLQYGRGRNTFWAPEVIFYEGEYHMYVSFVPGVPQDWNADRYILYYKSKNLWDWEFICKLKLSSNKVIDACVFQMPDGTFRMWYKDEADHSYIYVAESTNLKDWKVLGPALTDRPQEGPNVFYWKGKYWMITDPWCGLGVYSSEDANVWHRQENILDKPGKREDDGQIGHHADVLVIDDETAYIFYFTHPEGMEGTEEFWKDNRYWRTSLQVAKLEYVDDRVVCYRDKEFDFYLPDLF
In words: product inhibition, pNPA hydrolysis. The conditions noted are these: read-out: % inhibition at 500 mM.

Experiment [4] has as its target T2, Cs_Gaf159A. Kind of experiment: product inhibition, pNPA hydrolysis. The conditions noted are these: read-out: % inhibition at 500 mM.

For the compound `O=[N+]([O-])c1ccc(O[C@@H]2O[C@@H](CO)[C@H](O)[C@H]2O)cc1` [pNPA, pNP-α-L-arabinofuranoside], the Km on Ch_Gaf159A [1] and on Cs_Gaf159A [2] was above 10 mM each time.

As for `OC1OC[C@H](O)[C@H](O)[C@H]1O` (some centres unmarked) [arabinose], the inhibition at 500000 µM at Ch_Gaf159A [3], at Ck_Gaf159A and on Cs_Gaf159A [4] was below 50% each time.

For orientation: Km means the substrate concentration at which the rate is half of its maximum. Usually inhibition stands for the percentage by which the read-out fell short of the control.
